Patent US7511145B2 (Genelabs Technologies, Inc., priority 2003, dated 2009)

Molecular target: T1, HCV-NS5b (Hepatitis C virus genotype 1b, UniProt Q9WMX2)
T1 construct: (His)6 (C); made in house; host or cells: XL-1 cells (E. coli), IPTG-inducible plasmid, nickel-NTA purification
Assay: HCV-NS5b enzyme assay (incorporation of radiolabeled UTP)
Type: biochemical
Conditions: for inhibition at 33 µM: enzyme inhibition at compound concentration of 33 uM; for inhibition at 100 µM: read-out: % inh@100, enzyme inhibition at compound concentration of 100 uM
Source text: The coding sequence of NS5b protein was cloned by PCR from pFKI389luc/NS3-3′/ET as described by Lohmann, V., et al. (1999) Science 285, 110-113 using the following primers: […]
The cloned fragment was missing the C terminus 21 amino acid residues. The cloned fragment was inserted into an IPTG-inducible expression plasmid that provided an epitope tag (His)6 at the carboxy terminus of the protein.
The recombinant enzyme was expressed in XL-1 cells and after induction of expression, the protein was purified using affinity chromatography on a nickel-NTA column. Storage condition was 10 mM Tris-HCl pH 7.5, 50 mM NaCl, 0.1 mM EDTA, 1 mM DTT, 20% glycerol at −20° C.
The polymerase activity was assayed by measuring incorporation of radiolabeled UTP into a RNA product using a biotinylated, heteropolymeric template, which included a portion of the HCV genome. Typically, the assay mixture (50 μL) contained 10 mM Tris-HCl (pH 7.5), 5 mM MgCl2, 0.2 mM EDTA, 10 mM KCl, 1 unit/μL RNAsin, 1 mM DTT, 10 μM each of NTP, including [^3H]-UTP, and 10 ng/μL heteropolymeric template. Test compounds were initially dissolved in 100% DMSO and further diluted in aqueous buffer containing 5% DMSO. Typically, compounds were tested at concentrations between 1 nM and 100 μM. Reactions were started with addition of enzyme and allowed to continue at 37° C. for 2 hours. Reactions were quenched with 8 μL of 100 mM EDTA and reaction mixtures (30 μL) were transferred to streptavidin-coated scintillation proximity microtiter plates (FlashPlates) and incubated at 4° C. overnight. Incorporation of radioactivity was determined by scintillation counting.
Shown in Table IX below are the values for enzyme inhibition measured at compound concentrations of 100 and 33 uM, (% inh@[…] and % inh@33, respectively). The percent inhibition values are calculated from the differential incorporation of radioactivity compared to a control reaction without compound: % inhibition=100−[(CountsINH−CountsBKG)/CountsCTRL−CountsBKG)×100 where CountsINH is the signal of the testwell with inhibitor, CountsBKG is the background signal and CountsCTRL is the signal of a testwell without inhibitor.

Compound	inhibition at 33 µM	inhibition at 100 µM
O=C(O)c1ccc2c(c1)nc(-c1ccc3nc(-c4ccccc4)cnc3c1)n2C1CCCCC1 [Compound 203, 1-Cyclohexyl-2-(2-phenyl-quinoxalin-6-yl)-1H-benzoimidazole-5-carboxylic acid]	75%	97.5%
O=C(O)c1ccc2c(c1)nc(-c1ccc3nc(-c4cc(C(=O)N5CCCC5)ccc4-c4ccc(Cl)cc4)ccc3c1)n2C1CCCCC1 [Compound 204, 2-{2-[4′-Chloro-4-(pyrrolidine-1-carbonyl)-biphen-2-yl]-quinolin-6-yl}-1-cyclohexyl-1H-benzoimidazole-5-carboxylic acid]	99.7%	101%
O=C(O)c1ccc2c(c1)nc(-c1ccc3ncc(-c4ccccc4)nc3c1)n2C1CCCCC1 [Compound 205, 1-Cyclohexyl-2-(3-phenyl-quinoxalin-6-yl)-1H-benzoimidazole-5-carboxylic acid]	84.4%	99%
O=C(O)c1ccc2c(c1)nc(-c1ccc3ncc(-c4ccccc4)cc3c1)n2C1CCCCC1 [Compound 206, 1-Cyclohexyl-2-(3-phenyl-quinolin-6-yl)-1H-benzoimidazole-5-carboxylic acid]	94.2%	96.9%
O=C(O)c1ccc2c(c1)nc(-c1ccc3c(c1)CCC(c1ccccc1)N3)n2C1CCCCC1 (stereo not shown) [Compound 215, 1-Cyclohexyl-2-(2-phenyl-1,2,3,4-tetrahydro-quinolin-6-yl)-1H-benzoimidazole-5-carboxylic acid]	99.2%	101%
Cc1ccc2cc(-c3nc4cc(C(=O)N[C@@H](Cc5c[nH]c6ccc(O)cc56)C(=O)O)ccc4n3C3CCCCC3)ccc2n1 [Compound 230, 2-{[1-Cyclohexyl-2-(2-methyl-quinolin-6-yl)-1H-benzoimidazole-5-carbonyl]-amino}-3-(5-hydroxy-1H-indol-3-yl)-propionic acid]	92.7%	98.2%
O=C(N[C@@H](CO)C(=O)O)c1ccc2c(c1)nc(-c1ccc3nc(-c4ccccc4)ccc3c1)n2C1CCCCC1 [Compound 231, 2-{[1-Cyclohexyl-2-(2-phenyl-quinolin-6-yl)-1H-benzoimidazole-5-carbonyl]-amino}-3-hydroxy-propionic acid]	67%	97.5%
NCCCC[C@H](NC(=O)c1ccc2c(c1)nc(-c1ccc3nc(-c4ccccc4)ccc3c1)n2C1CCCCC1)C(=O)O [Compound 232, 6-Amino-2-{[1-cyclohexyl-2-(2-phenyl-quinolin-6-yl)-1H-benzoimidazole-5-carbonyl]-amino}-hexanoic acid]	60.5%	80.2%
O=C(O)[C@@H]1CCCN1C(=O)c1ccc2c(c1)nc(-c1ccc3nc(-c4ccccc4)ccc3c1)n2C1CCCCC1 [Compound 233, 1-[1-Cyclohexyl-2-(2-phenyl-quinolin-6-yl)-1H-benzoimidazole-5-carbonyl]-pyrrolidine-2-carboxylic acid]	50%	88.2%
O=C(N[C@@H](Cc1c[nH]c2ccc(O)cc12)C(=O)O)c1ccc2c(c1)nc(-c1ccc3nc(-c4ccccc4)cnc3c1)n2C1CCCCC1 [Compound 234, 2-{[1-Cyclohexyl-2-(2-phenyl-quinoxalin-6-yl)-1H-benzoimidazole-5-carbonyl]-amino}-3-(5-hydroxy-1H-indol-3-yl)-propionic acid]	98.6%	100%
O=C(N[C@@H](Cc1c[nH]c2ccc(O)cc12)C(=O)O)c1ccc2c(c1)nc(-c1ccc3nc(-c4cc(C(=O)N5CCCC5)ccc4-c4ccc(Cl)cc4)ccc3c1)n2C1CCCCC1 [Compound 235, 2-[(2-{2-[4′-Chloro-4-(pyrrolidine-1-carbonyl)-biphen-2-yl]-quinolin-6-yl}-1-cyclohexyl-1H-benzoimidazole-5-carbonyl)-amino]-3-(5-hydroxy-1H-indol-3-yl)-propionic acid]	99.1%	99.5%
O=C(N[C@@H](Cc1c[nH]c2ccc(O)cc12)C(=O)O)c1ccc2c(c1)nc(-c1ccc3ncc(-c4ccccc4)nc3c1)n2C1CCCCC1 [Compound 236, 2-{[1-Cyclohexyl-2-(3-phenyl-quinoxalin-6-yl)-1H-benzoimidazole-5-carbonyl]-amino}-3-(5-hydroxy-1H-indol-3-yl)-propionic acid]	99.2%	99.2%
O=C(O)CC[C@H](NC(=O)c1ccc2c(c1)nc(-c1ccc3nc(-c4ccccc4)ccc3c1)n2C1CCCCC1)C(=O)O [Compound 237, 2-{[1-Cyclohexyl-2-(2-phenyl-quinolin-6-yl)-1H-benzoimidazole-5-carbonyl]-amino}-pentanedioic acid]	79.7%	95.6%
O=C(N[C@@H](Cc1c[nH]c2ccc(O)cc12)C(=O)O)c1ccc2c(c1)nc(-c1ccc3ncc(-c4ccccc4)cc3c1)n2C1CCCCC1 [Compound 238, 2-{[1-Cyclohexyl-2-(3-phenyl-quinolin-6-yl)-1H-benzoimidazole-5-carbonyl]-amino}-3-(5-hydroxy-1H-indol-3-yl)-propionic acid]	97.6%	98.4%
O=C(O)CCNC(=O)c1ccc2c(c1)nc(-c1ccc3nc(-c4ccccc4)cnc3c1)n2C1CCCCC1 [Compound 239, 3-{[1-Cyclohexyl-2-(2-phenyl-quinoxalin-6-yl)-1H-benzoimidazole-5-carbonyl]-amino}-propionic acid]	49.1%	70.2%
O=C(N[C@@H](Cc1ccc(-c2ccccc2)cc1)C(=O)O)c1ccc2c(c1)nc(-c1ccc3nc(-c4ccccc4)cnc3c1)n2C1CCCCC1 [Compound 240, 3-Biphenyl-4-yl-2-{[1-cyclohexyl-2-(2-phenyl-quinoxalin-6-yl)-1H-benzoimidazole-5-carbonyl]-amino}propionic acid]	95.7%	96.1%
O=C(N[C@@H](Cc1ccc(C(=O)c2ccccc2)cc1)C(=O)O)c1ccc2c(c1)nc(-c1ccc3nc(-c4ccccc4)cnc3c1)n2C1CCCCC1 [Compound 241, 3-(4-Benzoyl-phenyl)-2-{[1-cyclohexyl-2-(2-phenyl-quinoxalin-6-yl)-1H-benzoimidazole-5-carbonyl]-amino}-propionic acid]	98%	98.4%
O=C(N[C@@H](CC1CCCCC1)C(=O)O)c1ccc2c(c1)nc(-c1ccc3nc(-c4ccccc4)cnc3c1)n2C1CCCCC1 [Compound 242, 3-Cyclohexyl-2-{[1-cyclohexyl-2-(2-phenyl-quinoxalin-6-yl)-1H-benzoimidazole-5-carbonyl]-amino}-propionic acid]	97.4%	97%
O=C(N[C@H](C(=O)O)C1CCCCC1)c1ccc2c(c1)nc(-c1ccc3nc(-c4ccccc4)cnc3c1)n2C1CCCCC1 [Compound 243, Cyclohexyl-{[1-cyclohexyl-2-(2-phenyl-quinoxalin-6-yl)-1H-benzoimidazole-5-carbonyl]-amino}-acetic acid]	96%	98.1%
O=C(O)C[C@H](NC(=O)c1ccc2c(c1)nc(-c1ccc3nc(-c4ccccc4)cnc3c1)n2C1CCCCC1)C(=O)O [Compound 244, 2-{[1-Cyclohexyl-2-(2-phenyl-quinoxalin-6-yl)-1H-benzoimidazole-5-carbonyl]-amino}-succinic acid]	75.7%	97%
O=C(O)CC[C@H](NC(=O)c1ccc2c(c1)nc(-c1ccc3nc(-c4ccccc4)cnc3c1)n2C1CCCCC1)C(=O)O [Compound 245, 2-{[1-Cyclohexyl-2-(2-phenyl-quinoxalin-6-yl)-1H-benzoimidazole-5-carbonyl]-amino}-pentanedioic acid]	73.2%	97.4%
O=C(N[C@@H](Cc1ccccc1)C(=O)O)c1ccc2c(c1)nc(-c1ccc3nc(-c4ccccc4)cnc3c1)n2C1CCCCC1 [Compound 246, 2-{[1-Cyclohexyl-2-(2-phenyl-quinoxalin-6-yl)-1H-benzoimidazole-5-carbonyl]-amino}-3-phenyl-propionic acid]	95.9%	96.4%
O=C(N[C@@H](Cc1c[nH]cn1)C(=O)O)c1ccc2c(c1)nc(-c1ccc3nc(-c4ccccc4)cnc3c1)n2C1CCCCC1 [Compound 247, 2-{[1-Cyclohexyl-2-(2-phenyl-quinoxalin-6-yl)-1H-benzoimidazole-5-carbonyl]-amino}-3-(1H-imidazol-4-yl)-propionic acid]	66.8%	94.2%
